Assay results from patent US4758551A (priority 1986, dated 1988).
Numbered stars: 1 amine (or outer) side, 2 acyl side, 3 side chain; on linkers, the order of the positions; unused ones are H or OH. Peptide text beside a SMILES is read from it. γGlu = O=C(O)[C@H](CCC(=O)[*:2])N[*:1]

Legend:
Male Swiss Webster mice [1] = experiment: Induction of glutathionuria by gamma-glutamyl compounds in mice (urinary glutathione); assay type: in vivo; conditions: for Urinary GSH: subcutaneous, 200 mM neutral solution, dose 4 mM per kilogram of body weight, urine collected for 1 hour
Experimental: Male Swiss Webster mice (20-27 g) were obtained from Taconic Farms (Germantown, N.Y.) and Hilltop Lab Animals (Scottsdale, Pa.).
(§1) The mice were fed ad libitum. Their urinary bladders were emptied by gentle abdominal pressure prior to subcutaneous injection of the gamma-glutamyl amino acids and urine was collected at 15 minute intervals for 1 hour in a tube containing 5 μl of 50% (w/v) 5-sulfosalicyclic acid. Elevated plasma glutathione levels were occasionally found after moderate abdominal pressure was applied to mice. For this reason, studies of urinary and plasma glutathione levels were carried out on different groups of mice.
(§2) Plasma, kidneys and livers were obtained and processed by well known means (see Anderson, M. E. et al, J. Biol. Chem. 255:9530-9533 (1980) and Anderson, M. E. et al, Methods Enzymol. 113:548-555 (1986)) and the concentration of glutathione therein was determined by the GSSG reductase-DTNB recycling assay (see Anderson, M. E. et al, Methods Enzymol. 113:548-555 (1986), Tietze, F., Analytical Biochem. 27:502-522 (1969) and Owens, C. et al, Biochem. J. 94:705-711 (1965)).
The urine samples were treated with 5mM dithiothreitol (pH 7.0) for 1 hour followed by derivatization with 2-vinylpyridine (see Griffith, O. W., Analytical Biochem. 106:207-212 (1980)). The derivatized samples were chromatographed on the amino acid analyzer using lithium citrate buffers (see Benson, J. V. et al, Anal. Biochem. 18:228-240 (1967)). The elution times for the vinylpyridine derivatives of gamma-glutamyl glutathione, gamma-glutamylcysteine, glutathione, cysteinylglycine and cysteine were 120, 163, 165, 220 and 235 minutes, respectively.
*The mice were injected subcutaneously with a 200 mM neutral solution of
the indicated amino acid (dose, 4 mM per kilogram of body weight) or with
an equivalent volume of saline. Urine was collected for 1 hour.

mice = conditions: cited from earlier work
Male Swiss Webster mice [2] = conditions: similar protocol (Griffith 1979); cited from earlier work
Male Swiss Webster mice [3] = conditions: cited from earlier work
[4] = biological target: T1, purified rat kidney gamma-glutamyl transpeptidase (Rattus norvegicus, UniProt P07314); experiment: Gamma-glutamyl transpeptidase activity assay with L-gamma-glutamyl-p-nitroanilide (apparent Khi, Dixon plot); assay type: biochemical
T1 construct: Highly purified rate kidney gamma-glutamyl transpeptidase was prepared by well known means; from tissue; host or cells: rat kidney
T1 sequence (P07314 1-379 limits assumed): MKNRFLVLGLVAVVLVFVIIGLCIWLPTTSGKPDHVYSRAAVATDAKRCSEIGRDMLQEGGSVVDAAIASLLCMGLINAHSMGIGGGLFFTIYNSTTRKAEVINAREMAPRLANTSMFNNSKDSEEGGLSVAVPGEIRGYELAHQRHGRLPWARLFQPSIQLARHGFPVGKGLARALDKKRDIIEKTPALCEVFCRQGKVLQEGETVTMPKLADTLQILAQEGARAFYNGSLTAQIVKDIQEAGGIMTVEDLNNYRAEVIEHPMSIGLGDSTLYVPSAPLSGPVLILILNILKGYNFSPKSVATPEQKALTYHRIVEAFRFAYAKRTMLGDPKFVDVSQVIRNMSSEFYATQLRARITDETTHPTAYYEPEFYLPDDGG
T1 sequence (P07314 380-568 limits assumed): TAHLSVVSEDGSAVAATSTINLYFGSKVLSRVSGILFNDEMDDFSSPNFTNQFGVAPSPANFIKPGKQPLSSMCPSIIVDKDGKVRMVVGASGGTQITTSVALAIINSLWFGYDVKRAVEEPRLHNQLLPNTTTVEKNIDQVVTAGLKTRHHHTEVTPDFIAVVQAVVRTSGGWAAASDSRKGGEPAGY
Experimental: Highly purified rate kidney gamma-glutamyl transpeptidase was prepared by well known means (see Tate, S. S. et al, Methods Enzymol. 113:400-419 (1986)). Bovine and porcine gamma-glutamyl transpeptidase can be obtained from Sigma Chemical Co. (St. Louis, Mo.).
Gamma-glutamyl transpeptidase activity was assayed using L-gamma-glutamyl-p-nitroanilide and the rate of formation of p-nitroaniline at 405 nm at 37° C. was measured (see Orlowski, M. et al, Biochim. Biophys. Acta 73:679-681 (1973)). The 1 ml final volume enzyme reaction mixture employed contained 40 mM Tris-HCl (pH 7.5), 30 or 60 μM L-gamma-glutamyl-p-nitroanilide, 30 or 150 μM gamma-glutamyl amino acid and 0.115 units gamma-glutamyl transpeptidase. Two different concentrations of substrate were employed for kinetic analyses. The reaction was initiated by adding gamma-glutamyl transpeptidase. The absorbance scale was 0.02 or 0.05 to insure that initial rates were obtained. The apparent hydrolysis Ki (Khi) values were determined from a Dixon plot and normalized to the apparent Km value for 6 μM L-gamma-glutamyl-p-nitroanilide (see Thompson, G. A. et al, Biochem. Biophys, Res. Commun. 71:32-36 (1976)).
The values for the apparent Khi for a number of gamma-glutamyl amino acids using purified rat kidney gamma-glutamyl transpeptidase are shown in the Figure. […]

[5] = In vivo conversion of the administered gamma-glutamyl compound
From the text: The values for the apparent Khi for a number of gamma-glutamyl amino acids using purified rat kidney gamma-glutamyl transpeptidase are shown in the Figure. These values were plotted against the urinary glutathione obtained in the in vivo studies and a fairly close correlation was found. That is, the apparent affinity of gamma-glutamyl transpeptidase or gamma-glutamyl amino acid substrates varies over about a 6-fold range. In contrast, the affinity for the corresponding free amino acids varies over a range of several hundred (see Tate, S. S. et al, J. Biol. Chem. 249:7593-7602 (1974)).

Male Swiss Webster mice [6] = experiment: Glutathione levels of kidney, liver and blood plasma of mice after administration; assay type: in vivo; conditions: experimental period 1 hour
Experimental: as §1, §2

[7] = biological target: T1, purified rat kidney gamma-glutamyl transpeptidase; conditions: free amino acids (Tate 1974); cited from earlier work
[8] = mice, after administration of the hydrazide

**Q.** For CSC[C@H](NC(=O)CC[C@H](N)C(=O)O)C(=O)NCC(=O)O [S--Methyl glutathione], which “Urinary GSH” value (Male Swiss Webster mice [1]) is on record?
**A.** 5.21 ± 1.30 mM

**Q.** For CSCC[C@H](NC(=O)CC[C@@H](N)C(=O)O)C(=O)O [D-Gamma-Glu-- L-Met, D-Gamma-Glu-L-Met], which “Urinary GSH” value (Male Swiss Webster mice [1]) is on record?
**A.** 0.18 ± 0.05 mM

**Q.** With NNc1ccccc1C(=O)O [o-carboxyphenylhydrazine] as the molecule, how does the fatal dose (mice) read?
**A.** more than 2 mM per kilogram of body weight

**Q.** With NC(CCC(=O)NNc1ccccc1C(=O)O)C(=O)O [L-gamma-glutamyl-(o-carboxy)phenylhydrazide] as the molecule, how does the “glutathione found in the urine” value (Male Swiss Webster mice [2]) read?
**A.** 3.6 to 5.6 mM

**Q.** And the “plasma glutathione levels” value (Male Swiss Webster mice [3]; Griffith 1979)?
**A.** marked increases

**Q.** What about the “decrease in kidney glutathione levels” value (Male Swiss Webster mice [3]; [8]) of the same molecule?
**A.** ~30%

**Q.** What about the “decrease in liver glutathione levels” value (Male Swiss Webster mice [3]; [8]) of the same molecule?
**A.** ~13%

**Q.** Which “Urinary GSH” value (Male Swiss Webster mice [1]) does the source give for N[C@@H](CCC(=O)N[C@@H](CCC(=O)O)C(=O)O)C(=O)O [L-Gamma-Glu-- L-Glu, L-Gamma-Glu-L-Glu] here?
**A.** 5.28 ± 1.05 mM

**Q.** Which “Urinary GSH” value (Male Swiss Webster mice [1]) does the source give for CC(C)C[C@H](NC(=O)CC[C@H](N)C(=O)O)C(=O)O [L-Gamma-Glu-- L-Leu, L-Gamma-Glu-L-Leu] here?
**A.** 0.60 ± 0.07 mM

**Q.** For N[C@@H](CCC(=O)NCC(=O)NCC(=O)O)C(=O)O [L-Gamma-Glu-- Gly--Gly, L-Gamma-Glu-Gly-Gly] (γGlu-Gly-Gly-OH), which “gamma-glutamyl glutathione in the urine” value (Male Swiss Webster mice [1]) is on record?
**A.** significant amounts

**Q.** What about the “Urinary GSH” value (Male Swiss Webster mice [1]) of the same molecule?
**A.** 3.29 ± 1.16 mM

**Q.** What about the “urinary gamma-glutamyl cysteine relative to urinary glutathione” value (Male Swiss Webster mice [1]; vinylpyridine derivative, amino acid analyzer) of the same molecule?
**A.** about 10%

**Q.** Which “induction of glutathionuria” value (Male Swiss Webster mice [1]) does the source give for NC(=O)CC[C@H](N)C(=O)O [L-glutamine, L-(and D-)glutamine, reference compound] here?
**A.** ineffective

**Q.** And the “Urinary GSH” value (Male Swiss Webster mice [1])?
**A.** < 0.03 mM

**Q.** And the “affinity for / interaction with gamma-glutamyl transpeptidase” value [4]?
**A.** very poor gamma-glutamyl substrate

**Q.** For CSCC[C@H](NC(=O)CC[C@H](N)C(=O)O)C(=O)O [L-Gamma-Glu-- L-Met, L-Gamma-Glu-L-Met], which “Urinary GSH” value (Male Swiss Webster mice [1]) is on record?
**A.** 8.54 ± 0.99 mM

**Q.** Which results are given for C[C@H](NC(=O)CC[C@H](N)C(=O)O)C(=O)O [L-Gamma-Glu-- L-Ala, L-Gamma-Glu-L-Ala]?
**A.** gamma-glutamyl glutathione in the urine (Male Swiss Webster mice [1]): significant amounts; Urinary GSH (Male Swiss Webster mice [1]): 5.69 ± 1.26 mM; affinity for / interaction with gamma-glutamyl transpeptidase [4]: much higher affinity

**Q.** Which “induction of glutathionuria” value (Male Swiss Webster mice [1]) does the source give for C[C@H](NC(=O)CC[C@H](NC(=O)CC[C@H](N)C(=O)O)C(=O)O)C(=O)O [L-Gamma-Glu-- L-Gamma-Glu-- L-Ala, L-Gamma-Glu-L-Gamma-Glu-L-Ala] here?
**A.** induced glutathionuria

**Q.** What about the “Urinary GSH” value (Male Swiss Webster mice [1]) of the same molecule?
**A.** 5.07 ± 0.73 mM

**Q.** What about the “in vivo conversion” value [5] of the same molecule?
**A.** rapidly converted in vivo to gamma-glutamyl alanine

**Q.** Which “Urinary GSH” value (Male Swiss Webster mice [1]) does the source give for CC(C)[C@H](NC(=O)[C@@H](N)CCC(=O)O)C(=O)O [L-glu-L-val, reference compound] (H-Glu-Val-OH) here?
**A.** < 0.03 mM

**Q.** For N[C@@H](CCC(=O)NCC(=O)O)C(=O)O [L-Gamma-Glu-- Gly, L-Gamma-Glu-Gly], which “Urinary GSH” value (Male Swiss Webster mice [1]) is on record?
**A.** 2.67 ± 0.40 mM

**Q.** Which “Urinary GSH” value (Male Swiss Webster mice [1]) does the source give for N[C@@H](CCC(=O)N[C@@H](CSSC[C@H](NC(=O)CC[C@H](N)C(=O)O)C(=O)O)C(=O)O)C(=O)O [(L-Gamma-Glu-- L-Cys)2, (L-gamma-Glu-L-Cys)2] here?
**A.** 5.77 ± 1.05 mM

**Q.** What about the “Urinary GSH” value (Male Swiss Webster mice [1]; listed as gamma-glutamylcysteine disulfide) of the same molecule?
**A.** about 6 mM

**Q.** For C[C@H](NC(=O)[C@@H](N)CCC(=O)O)C(=O)O [L-glu-L-ala, reference compound] (H-Glu-Ala-OH), which “Urinary GSH” value (Male Swiss Webster mice [1]) is on record?
**A.** < 0.03 mM

**Q.** Which “Urinary GSH” value (Male Swiss Webster mice [1]) does the source give for N[C@@H](CCC(=O)O)C(=O)N[C@@H](Cc1ccc(O)cc1)C(=O)O [L-glu-L-tyr, reference compound] (H-Glu-Tyr-OH) here?
**A.** < 0.03 mM

**Q.** For CC(C)[C@H](NC(=O)CC[C@H](N)C(=O)O)C(=O)O [L-Gamma-Glu-- L-Val, L-Gamma-Glu-L-Val], which “Urinary GSH” value (Male Swiss Webster mice [1]) is on record?
**A.** 0.49 ± 0.25 mM

**Q.** Which “Urinary GSH” value (Male Swiss Webster mice [1]) does the source give for N[C@@H](CSSC[C@H](N)C(=O)O)C(=O)O [L-Cystine, reference compound] here?
**A.** < 0.03 mM

**Q.** Which “Urinary GSH” value (Male Swiss Webster mice [1]) does the source give for N[C@@H](CCC(=O)N[C@@H](CSSC[C@H](NC(=O)CC[C@H](N)C(=O)O)C(=O)O)C(=O)O)C(=O)O [L-Gamma-Glu-- L-(Cys)2, L-Gamma-Glu-L-(Cys)2] here?
**A.** 2.63 ± 0.33 mM

**Q.** For N[C@@H](CCC(=O)N[C@@H](Cc1ccc(O)cc1)C(=O)O)C(=O)O [L-Gamma-Glu-- L-Tyr, L-Gamma-Glu-L-Tyr], which “Urinary GSH” value (Male Swiss Webster mice [1]) is on record?
**A.** 3.19 ± 0.80 mM

**Q.** With CC[C@H](NC(=O)CC[C@H](N)C(=O)O)C(=O)O as the molecule, how does the “Urinary GSH” value (Male Swiss Webster mice [1]) read?
**A.** 1.52 ± 0.38 mM

**Q.** Which “Urinary GSH” value (Male Swiss Webster mice [1]) does the source give for NCCCC[C@H](NC(=O)[C@@H](N)CCC(=O)O)C(=O)O [L-glu-L-(α )-lys, reference compound] (H-Glu-Lys-OH) here?
**A.** < 0.03 mM

**Q.** With CC[C@H](C)[C@H](NC(=O)CC[C@H](N)C(=O)O)C(=O)O [L-Gamma-Glu-- L-Ile, L-Gamma-Glu-L-Ile] as the molecule, how does the “Urinary GSH” value (Male Swiss Webster mice [1]) read?
**A.** 1.00 ± 0.10 mM

**Q.** Which “effect on liver glutathione levels” value (Male Swiss Webster mice [6]) does the source give for N[C@@H](CCC(=O)N[C@@H](CS)C(=O)O)C(=O)O [gamma-glutamylcysteine] here?
**A.** does not affect

**Q.** What about the “effect on kidney glutathione levels” value (Male Swiss Webster mice [3]; Anderson 1983) of the same molecule?
**A.** increases

**Q.** Which “Urinary GSH” value (Male Swiss Webster mice [1]) does the source give for N[C@@H](CCC(=O)N[C@@H](CC(=O)O)C(=O)O)C(=O)O [L-Gamma-Glu-- L-Asp, L-Gamma-Glu-L-Asp] here?
**A.** 0.26 ± 0.10 mM

**Q.** For NC(=O)CC[C@H](NC(=O)CC[C@H](N)C(=O)O)C(=O)O [L-Gamma-Glu-- L-Gln, L-Gamma-Glu-L-Gln], which “Urinary GSH” value (Male Swiss Webster mice [1]) is on record?
**A.** 1.17 ± 0.55 mM

**Q.** With NCCCC[C@H](N)C(=O)O [lysine] as the molecule, how does the “acceptor substrate of gamma-glutamyl transpeptidase” value [7] read?
**A.** extremely poor acceptor substrates

**Q.** Which “Urinary GSH” value (Male Swiss Webster mice [1]) does the source give for N[C@@H](CCCCNC(=O)CC[C@H](N)C(=O)O)C(=O)O [L-Gamma-- ε-L-Lys, L-Gamma-Glu-ε-L-Lys] here?
**A.** 0.77 ± 0.17 mM

**Q.** Which “acceptor substrate of gamma-glutamyl transpeptidase” value [7] does the source give for CC(C)[C@H](N)C(=O)O [valine] here?
**A.** extremely poor acceptor substrates
